Results reported in patent publication US20230131899A1, “INHIBITORS OF MICROBIALLY INDUCED AMYLOID” (Axial Therapeutics, Inc., priority 2020, published 2023).
Like-named read-outs stand apart in the source and are kept apart here.

Biological target: T1, E. coli CsgA (Escherichia coli, UniProt P28307)
T1 construct: made in house; host or cells: E. coli NEB 3016 slyD::kan, pET11d
Experiment: In vitro ThioflavinT assay of CsgA aggregation (CsgA ThT Assay)
Assay type: biochemical
Settings: for remaining activity at 25 µM: compound 25 μM; for remaining activity at 100 µM: compound 100 μM
Protocol: In vitro ThioflavinT assay to determine effects of compounds on CsgA aggregation. To assess the effects of compounds on aggregation of E. coli CsgA, a cell-free assay was performed using purified CsgA and Thioflavin T. In the assay, histidine-tagged CsgA was over-expressed in E. coli NEB 3016 slyD::kan cells harboring a pET11d vector containing a C-terminal 6× His tag. Following growth in rich media, CsgA production is induced at an OD600 of approximately 1.0 by addition of 0.5 mM IPTG (isopropyl beta-D-1-thiogalactopyranoside) followed by incubation at 37° C. for 1-4 hours with shaking at 200-250 rpm. Bacteria were resuspended in 8 M guanidine hydrochloride in 50 mM potassium phosphate buffer, pH 7.3 and lysed by sonication on ice using three 20 second intervals. The resulting lysate was incubated on a platform rocker for 1 hour at room temperature. After centrifugation at 10,000×g for 20 minutes, the supernatant was further sonicated on ice for three 20 second intervals and then incubated with nickel-nitrilotriacetic acid resin (Sigma) at room temperature for 1 hour in a 50 mL conical tube on a platform rocker. The resin was washed and pelleted 5 times with 45 mL 8 M guanidine in 50 mM potassium phosphate buffer pH 7.3. The resin was further washed and pelleted two times with 8 M guanidine hydrochloride in 50 mM potassium phosphate buffer pH 7.3 containing 12.5 mM imidazole. Purified CsgA protein was eluted two times with 5 mL of 6-8 M guanidine hydrochloride in 50 mM potassium phosphate buffer, pH 7.3 containing 250 mM imidazole. The eluted protein was aliquoted with 150 μL per aliquot, snap frozen in liquid nitrogen, and stored at −80 C. In order to obtain monomeric CsgA, the purified CsgA protein was thawed and passed through two pre-chilled desalting columns (Zeba) to remove imidazole and guanidine. The buffer exchanged protein was loaded onto a 30-kDa centrifugal filter unit (Amicon) and spun for 30 minutes at 7500×g to remove dimers and other oligomers. Protein concentration was assessed by the NanoDrop technique (Thermo Scientific), as is familiar to one skilled in the art. The CsgA aggregation assay was conducted in 96-well black non-binding surface or white untreated microplates with 20-40 μM ThioflavinT, 50 mM potassium phosphate buffer pH 7.3, 1% DMSO, CsgA at 2-20 μM, and compounds at 3.125-200 uM. The vehicle control wells contain all components of the assay except test compounds and represent the level of CsgA aggregation in the absence of any inhibitor or accelerator. Plates were incubated at room temperature in a Tecan Nano F200 plate reader with excitation at 438 nm using a 439 nm filter with a bandwidth of 8 nm, and emission at 495 nm with a 490 nm filter with a bandwidth of 10 nm, or in a SpectraMax M5, SpectraMax M2 or SpectraMax® i3X (Molecular Devices, San Jose, Calif.) spectrophotometer with excitation at 438 nm and emission at 495 nm. During the assay, plates were shaken initially for 5 seconds and subsequently for 3 seconds prior to fluorescent readings. Readings were performed every 15 minutes for up to 1005 minutes. The effect of compounds on CsgA aggregation in the assay was determined with data from 0-17 hours. Fluorescence values for each compound with CsgA were first adjusted by subtracting the average fluorescence of the compound in the absence of CsgA or in the presence of CsgA and compound at time 0 or 15 minutes. The data were analyzed in several ways:
1. The adjusted ThT fluorescence values were normalized by dividing them by the average fluorescence in the vehicle control wells containing CsgA. The median normalized fluorescence from 6-6.5 hours or 8-9 hours with the compound was expressed as a percentage of the median fluorescence observed in vehicle controls over the same time period. Percent inhibition of CsgA aggregation by a compound was determined by subtracting the percent average fluorescence with the compound relative to the vehicle controls from 100%. […]

[1] = read-out: CsgA ThT Assay (10 μM CsgA) % Control AUC at 1005 minutes, 25 μM (activity range), CsgA 10 μM, black plates, 1005 minutes, class symbol
[2] = read-out: CsgA ThT Assay (10 μM CsgA) % Control AUC at 1005 minutes, 25 μM, mean AUC as % of DMSO control, CsgA 10 μM, black plates, 1005 minutes
[3] = read-out: CsgA ThT Assay (10 μM CsgA) % Control AUC at 1005 minutes, 100 μM (activity range), CsgA 10 μM, black plates, 1005 minutes, class symbol
[4] = read-out: CsgA ThT Assay (10 μM CsgA) % Control AUC at 1005 minutes, 100 μM, mean AUC as % of DMSO control, CsgA 10 μM, black plates, 1005 minutes
[5] = read-out: CsgA ThT Assay (2 μM CsgA) % Control Bmax 25 μM, activity range, class symbol, CsgA 2 μM, white plates
[6] = read-out: CsgA ThT Assay (2 μM CsgA) % Control Bmax 25 μM, mean Bmax as percentage of DMSO control, CsgA 2 μM, white plates
[7] = read-out: CsgA ThT Assay (2 μM CsgA) % Control Bmax 100 μM, activity range, class symbol, CsgA 2 μM, white plates
[8] = read-out: CsgA ThT Assay (2 μM CsgA) % Control Bmax 100 μM, mean Bmax as percentage of DMSO control, CsgA 2 μM, white plates

T1 sequence (P28307 23-151): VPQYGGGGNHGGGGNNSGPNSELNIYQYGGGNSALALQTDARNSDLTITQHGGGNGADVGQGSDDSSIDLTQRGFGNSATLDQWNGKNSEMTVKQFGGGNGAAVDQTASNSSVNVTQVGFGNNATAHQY

Compound | remaining activity at 25 µM [1] [%] | remaining activity at 25 µM [2] [%] | remaining activity at 100 µM [3] [%] | remaining activity at 100 µM [4] [%] | remaining activity at 25 µM [5] [%] | remaining activity at 25 µM [6] [%] | remaining activity at 100 µM [7] [%] | remaining activity at 100 µM [8] [%]
CCc1c(Cc2cccc3ccccc23)c(-c2cccc(C(F)(F)F)c2)c2n(c1=O)C(C(=O)O)CN(C)S2(=O)=O (centres unmarked) [Compound 076, 7-ethyl-2-methyl-8-(naphthalen-1-ylmethyl)-6-oxo-9-(3-(trifluoromethyl)phenyl)-3,4-dihydro-2H,6H-pyrido[1,2-e][1,2,5]thiadiazine-4-carboxylic acid 1,1-dioxide] | 11 to 31 | 17 | 11 to 31 | 14 | – | – | – | –
CCCN1CC(C(=O)O)n2c(c(-c3cccc(C(F)(F)F)c3)c(Cc3cccc4ccccc34)c(OCc3ccccc3)c2=O)S1(=O)=O (centres unmarked) [Compound 146, 7-(benzyloxy)-8-(naphthalen-1-ylmethyl)-6-oxo-2-propyl-9-(3-(trifluoromethyl)phenyl)-3,4-dihydro-2H,6H-pyrido[1,2-e][1,2,5]thiadiazine-4-carboxylic acid 1,1-dioxide] | – | – | – | – | > 60 | 113 | > 60 | 63
CCCN1CC(C(=O)O)n2c(c(-c3cccc(C(F)(F)F)c3)c(Cc3cccc4ccccc34)c(NC(C)C)c2=O)S1(=O)=O (centres unmarked) [Compound 149, 7-(isopropylamino)-8-(naphthalen-1-ylmethyl)-6-oxo-2-propyl-9-(3-(trifluoromethyl)phenyl)-3,4-dihydro-2H,6H-pyrido[1,2-e][1,2,5]thiadiazine-4-carboxylic acid 1,1-dioxide] | – | – | – | – | > 60 | 98 | > 60 | 115
O=C(O)CCCCN1CC(C(=O)O)n2c(c(-c3cccc(C(F)(F)F)c3)c(Cc3cccc4ccccc34)cc2=O)S1(=O)=O (centres unmarked) [Compound 039, 2-(4-carboxybutyl)-8-(naphthalen-1-ylmethyl)-6-oxo-9-(3-(trifluoromethyl)phenyl)-3,4-dihydro-2H,6H-pyrido[1,2-e][1,2,5]thiadiazine-4-carboxylic acid 1,1-dioxide] | > 60 | 92 | 11 to 31 | 24 | – | – | – | –
CCCOc1c(Cc2cccc3ccccc23)c(-c2cccc(C(F)(F)F)c2)c2n(c1=O)C(C(=O)O)CN(CCC)S2(=O)=O (centres unmarked) [Compound 147, 8-(naphthalen-1-ylmethyl)-6-oxo-7-propoxy-2-propyl-9-(3-(trifluoromethyl)phenyl)-3,4-dihydro-2H,6H-pyrido[1,2-e][1,2,5]thiadiazine-4-carboxylic acid 1,1-dioxide] | – | – | – | – | > 60 | 101 | > 60 | 139
O=C(O)C1CN(C(=O)OCc2ccccc2)c2c(-c3cccc(C(F)(F)F)c3)c(Cc3cccc4ccccc34)cc(=O)n21 (centres unmarked) [Compound 103, 1-((benzyloxy)carbonyl)-7-(naphthalen-1-ylmethyl)-5-oxo-8-(3-(trifluoromethyl)phenyl)-1,2,3,5-tetrahydroimidazo[1,2-a]pyridine-3-carboxylic acid] | > 60 | 95 | > 60 | 102 | – | – | – | –
Cn1cc(C(=O)O)n2c(=O)cc(Cc3cccc4ccccc34)c(-c3cccc(C(F)(F)F)c3)c12 [Compound 111, 1-methyl-7-(naphthalen-1-ylmethyl)-5-oxo-8-(3-(trifluoromethyl)phenyl)-1,5-dihydroimidazo[1,2-a]pyridine-3-carboxylic acid] | > 60 | 98 | > 60 | 95 | – | – | – | –
O=C(O)C1CN(Cc2ccccc2)c2c(-c3cccc(C(F)(F)F)c3)c(CN3CCCCC3)c(Cl)c(=O)n21 (centres unmarked) [Compound 218, 1-benzyl-6-chloro-5-oxo-7-(piperidin-1-ylmethyl)-8-(3-(trifluoromethyl)phenyl)-1,2,3,5-tetrahydroimidazo[1,2-a]pyridine-3-carboxylic acid] | – | – | – | – | > 60 | 115 | > 60 | 109
CCCN1CC(C(=O)O)n2c(c(-c3cccc(C(F)(F)F)c3)c(Cc3cccc4ccccc34)c(OC(C)C)c2=O)S1(=O)=O (centres unmarked) [Compound 148, 7-isopropoxy-8-(naphthalen-1-ylmethyl)-6-oxo-2-propyl-9-(3-(trifluoromethyl)phenyl)-3,4-dihydro-2H,6H-pyrido[1,2-e][1,2,5]thiadiazine-4-carboxylic acid 1,1-dioxide] | – | – | – | – | > 60 | 79 | > 60 | 113
O=C(O)[C@H]1CNS(=O)(=O)c2c(-c3cccc(C(F)(F)F)c3)c(Cc3cccc4ccccc34)cc(=O)n21 (single isomer, unassigned) [Compound 009b] | > 60 | 67 | 31 to 60 | 37 | – | – | – | –
O=C(O)[C@@H]1CNS(=O)(=O)c2c(-c3cccc(C(F)(F)F)c3)c(Cc3cccc4ccccc34)cc(=O)n21 (single isomer, unassigned) [Compound 009a] | 31 to 60 | 46 | 11 to 31 | 17 | – | – | – | –
